Measurements: patent US20260256792A1, “TREATMENT OF CHRONIC SPONTANEOUS URTICARIA BY ADMINISTERING (R)-2-[3-[4-AMINO-3-(2-FLUORO-4-PHENOXY-PHENYL)PYRAZOLO[3,4-D]PYRIMIDIN-1-YL]PIPERIDINE-1-CARBONYL]-4-METHYL-4-[4-(OXETAN-3-YL)PIPERAZIN-1-YL]PENT-2-ENENITRILE” (priority 2023, published 2026)

Test system: moderate-to-severe chronic spontaneous urticaria (CSU)
Experiment: Phase 2 CSU study: urticaria activity score over 7 days (UAS7)
Format: in vivo, human
Settings: ITT, 400 mg BID
Description: The study comprises a 12 week, randomized, double-blind, placebo-controlled, multi-center, dose-ranging efficacy and safety phase, followed by a 40 week open label extension (OLE) phase (see FIG. 1). The study consists of three phases and an optional OLE phase. […] Clinically, CSU is characterized by the spontaneous and recurrent appearance of pruritic hives. The proposed primary endpoints were the UAS7 at Week 12 in EU and EU reference countries and the ISS7 in the US. Regardless of where a participant was from, all assessments were the same. The UAS7 score is a composite score containing both the HSS7 and the ISS7. This allowed a global assessment of the two key components of urticaria: hives and itch. […] The UAS is a validated PRO measure. […] The daily UAS scores range from 0 to 6 point/day. […] Patients were to complete the UAS using the e-diary. […] The following secondary endpoints were to be analyzed using the same approach as for the primary endpoint: • Change from baseline in UAS7 at Week 4 • Change from baseline in UAS7 at Week 12 (for US and US reference countries) • Change from baseline in ISS7 at Week 12 (except US and US reference countries) • Change from baseline in HSS7 at Week 12 The following responder secondary endpoints were to be analyzed using the Cochran-Mantel-Haenszel test adjusted by region: • Proportion of participants with UAS7<6 at Week 12 • Proportion of participants with UAS7=0 at Week 12 Participants who received selected prohibited medications and/or rescue medications were to be considered as non-responders for time points after the medication usage. For other participants, all available data including those collected during the off-treatment period were to be used to determine the responder/non-responder status. Missing data were to be considered as non-responders.

## CC(C)(C=C(C#N)C(=O)N1CCC[C@@H](n2nc(-c3ccc(Oc4ccccc4)cc3F)c3c(N)ncnc32)C1)N1CCN(C2COC2)CC1 [rilzabrutinib, (R)-2-[3-[4-amino-3-(2-fluoro-4-phenoxy-phenyl)pyrazolo[3,4-d]pyrimidin-1-yl]piperidine-1-carbonyl]-4-methyl-4-[4-(oxetan-3-yl)piperazin-1-yl]pent-2-enenitrile]
Week 4
  OR for rilzabrutinib vs. placebo, UAS7 ≤6: 2.948
  RRD (%) for rilzabrutinib vs. placebo, UAS7 = 0: 1.3 %
  RRD (%) for rilzabrutinib vs. placebo, UAS7 ≤6: 16.7 %
  Responder n (%), UAS7 = 0: 3 (7.3) n (%)
  Responder n (%), UAS7 ≤6: 13 (31.7) n (%)
Week 5
  Imputed non-responder n (%), UAS7 = 0: 5 (12.2) n (%)
  Imputed non-responder n (%), UAS7 ≤6: 5 (12.2) n (%)
  Non-responder n (%), UAS7 = 0: 35 (85.4) n (%)
  Non-responder n (%), UAS7 ≤6: 28 (68.3) n (%)
  OR for rilzabrutinib vs. placebo, UAS7 = 0: 6.024
  OR for rilzabrutinib vs. placebo, UAS7 ≤6: 8.203
  RRD (%) for rilzabrutinib vs. placebo, UAS7 ≤6: 24.3 %
  Responder n (%), UAS7 = 0: 6 (14.6) n (%)
  Responder n (%), UAS7 ≤6: 13 (31.7) n (%)
Week 6
  Imputed non-responder n (%), UAS7 = 0: 4 (9.8) n (%)
  Imputed non-responder n (%), UAS7 ≤6: 4 (9.8) n (%)
  Non-responder n (%), UAS7 = 0: 36 (87.8) n (%)
  Non-responder n (%), UAS7 ≤6: 29 (70.7) n (%)
  OR for rilzabrutinib vs. placebo, UAS7 = 0: 4.821
  OR for rilzabrutinib vs. placebo, UAS7 ≤6: 2.329
  RRD (%) for rilzabrutinib vs. placebo, UAS7 = 0: 8.4 %
  RRD (%) for rilzabrutinib vs. placebo, UAS7 ≤6: 13.6 %
  Responder n (%), UAS7 = 0: 5 (12.2) n (%)
  Responder n (%), UAS7 ≤6: 12 (29.3) n (%)
Week 7
  Imputed non-responder n (%), UAS7 = 0: 4 (9.8) n (%)
  Imputed non-responder n (%), UAS7 ≤6: 4 (9.8) n (%)
  Non-responder n (%), UAS7 = 0: 35 (85.4) n (%)
  Non-responder n (%), UAS7 ≤6: 29 (70.7) n (%)
  OR for rilzabrutinib vs. placebo, UAS7 = 0: 6.024
  OR for rilzabrutinib vs. placebo, UAS7 ≤6: 3.425
  RRD (%) for rilzabrutinib vs. placebo, UAS7 ≤6: 17.8 %
  Responder n (%), UAS7 = 0: 6 (14.6) n (%)
  Responder n (%), UAS7 ≤6: 12 (29.3) n (%)
Week 8
  Imputed non-responder n (%), UAS7 = 0: 5 (12.2) n (%)
  Imputed non-responder n (%), UAS7 ≤6: 5 (12.2) n (%)
  Non-responder n (%), UAS7 = 0: 33 (80.5) n (%)
  Non-responder n (%), UAS7 ≤6: 25 (61.0) n (%)
  OR for rilzabrutinib vs. placebo, UAS7 = 0: 4.083
  OR for rilzabrutinib vs. placebo, UAS7 ≤6: 3.297
  RRD (%) for rilzabrutinib vs. placebo, UAS7 = 0: 13.4 %
  RRD (%) for rilzabrutinib vs. placebo, UAS7 ≤6: 21.8 %
  Responder n (%), UAS7 = 0: 8 (19.5) n (%)
  Responder n (%), UAS7 ≤6: 16 (39.0) n (%)
Week 9
  Imputed non-responder n (%), UAS7 = 0: 9 (22.0) n (%)
  Imputed non-responder n (%), UAS7 ≤6: 9 (22.0) n (%)
  Non-responder n (%), UAS7 = 0: 33 (80.5) n (%)
  Non-responder n (%), UAS7 ≤6: 28 (68.3) n (%)
  OR for rilzabrutinib vs. placebo, UAS7 = 0: 2.914
  OR for rilzabrutinib vs. placebo, UAS7 ≤6: 3.540
  RRD (%) for rilzabrutinib vs. placebo, UAS7 = 0: 11.3 %
  RRD (%) for rilzabrutinib vs. placebo, UAS7 ≤6: 19.4 %
  Responder n (%), UAS7 = 0: 8 (19.5) n (%)
  Responder n (%), UAS7 ≤6: 13 (31.7) n (%)
Week 10
  Imputed non-responder n (%), UAS7 = 0: 10 (24.4) n (%)
  Imputed non-responder n (%), UAS7 ≤6: 10 (24.4) n (%)
  Non-responder n (%), UAS7 = 0: 32 (78.0) n (%)
  Non-responder n (%), UAS7 ≤6: 29 (70.7) n (%)
  OR for rilzabrutinib vs. placebo, UAS7 = 0: 2.322
  OR for rilzabrutinib vs. placebo, UAS7 ≤6: 1.699
  RRD (%) for rilzabrutinib vs. placebo, UAS7 = 0: 10.9 %
  RRD (%) for rilzabrutinib vs. placebo, UAS7 ≤6: 8.6 %
  Responder n (%), UAS7 = 0: 9 (22.0) n (%)
  Responder n (%), UAS7 ≤6: 12 (29.3) n (%)
Week 11
  Imputed non-responder n (%), UAS7 = 0: 9 (22.0) n (%)
  Imputed non-responder n (%), UAS7 ≤6: 9 (22.0) n (%)
  Non-responder n (%), UAS7 = 0: 35 (85.4) n (%)
